Source: patent US9428448B2, “Compounds and methods of treating obesity” (Yissum Research Development Company of the Hebrew …, priority 2008, dated 2016)
Blank lines part the entries; values can stand above or below the compound they belong to.

Experiments:
[1] = molecular target: T1, PPAR-α (Homo sapiens, UniProt Q07869); settings: reported by Giuseppe et al. 2006; read-out: EC50 for stimulating transcriptional activity of PPAR-α; cited from earlier work
T1 sequence (Q07869 1-468): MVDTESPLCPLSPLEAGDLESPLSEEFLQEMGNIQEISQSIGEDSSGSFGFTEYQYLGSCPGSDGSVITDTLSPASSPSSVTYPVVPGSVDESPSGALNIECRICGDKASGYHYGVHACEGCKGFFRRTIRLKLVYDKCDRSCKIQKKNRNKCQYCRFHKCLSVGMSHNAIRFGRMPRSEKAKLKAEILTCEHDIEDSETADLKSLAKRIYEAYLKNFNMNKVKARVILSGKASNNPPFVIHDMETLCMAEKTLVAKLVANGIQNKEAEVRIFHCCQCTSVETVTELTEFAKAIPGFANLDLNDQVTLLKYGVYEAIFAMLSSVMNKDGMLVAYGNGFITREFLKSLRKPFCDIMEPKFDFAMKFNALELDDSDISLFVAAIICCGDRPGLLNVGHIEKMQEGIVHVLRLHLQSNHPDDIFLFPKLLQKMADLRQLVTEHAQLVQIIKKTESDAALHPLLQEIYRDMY

[2] = test system: ALT levels; assay: ALT levels in mice; format: in vivo, Sabra mice; settings: 1 mg/kg i.p., mice sacrificed 71 days after treatment (FIG. 13, Example 3)
Description: (§1) This study compared the effects of Compound X and Rimonabant. Female Sabra mice (32 g average weight) were divided randomly to 3 experimental groups: (a) control; (b) Compound X; and (3) Rimonabant, 10 mice in each group. Food consumption and weight were evaluated during the experiment. During the second week, mice were evaluated for cognitive function during 5 days using the eight arm maze. 15 min before evaluation mice were injected i.p. with either saline or 1 mg/kg Compound X or Rimonabant (days 8-12).
Mice were sacrificed 71 days after treatment, and ALT levels were measured.

[3] = cognitive function evaluated by an 8 arm maze; format: in vivo, Sabra mice; settings: for effect on cognitive function (8 arm maze; comparison study): 1 mg/kg, second week of treatment (FIG. 12, Example 3)
Description: Mice were subjected to the treatment regimen outlined in Example 1, and during the second week of treatment their cognitive function was evaluated by an 8 arm maze on the second week of the experiment 15 minutes after injection. Two hours before the test, the mice were on a water deprivation schedule. At the end of each arm there was a drop of water as a reward. Each mouse was evaluated for its performance in the maze. The mice were observed until they made entries to all eight arms or until they completed 24 entries (whichever came first). The results, depicted in FIG. 3, were calculated as AUC (area under the curve) as follows: day2+day3+day4+day5−4(day1).
as §1
Mice were subjected to treatment with Compound X (1 mg/kg) or Rimonabant (1 mg/kg), and during the second week of treatment their cognitive function was evaluated by an 8 arm maze as described above in Example 2.

[4] = test system: Serotonin (5-HT) levels in the hypothalamus; assay: serotonin (5-HT) levels in the hypothalamus (HPLC-ECD); format: in vivo, mice; settings: treated group vs. control, 1 mg/kg i.p., p<0.05 (FIG. 6)
Description: (§2) Mice were decapitated and their brains rapidly removed, and the hypothalamus and hippocampus were dissected. 2-AG levels in the hypothalamus were evaluated using TLC followed by GC-MS analysis.
(§3) Serotonin (5-HT) and norepinephrine (NE) were valuated in the hypothalamus (serotonin and norepinephrine) and hippocampus (norepinephrine), using HPLC-ECD.

[5] = test system: 2-AG levels in the hypothalamus; assay: 2-AG levels in the hypothalamus (TLC followed by GC-MS); format: in vivo, mice; settings: treated group vs. control, 1 mg/kg i.p., p<0.05 (FIG. 5)
Description: as §2

[6] = test system: norepinephrine (NE) levels; assay: norepinephrine (NE) levels in hippocampus and hypothalamus (HPLC-ECD); format: in vivo, mice; settings: 1 mg/kg i.p.
Description: as §2, §3

[7] = body weight of mice during treatment; format: in vivo, Sabra mice; settings: for effect on weight vs control (comparison study): 1 mg/kg i.p. days 8-12, female Sabra mice (FIG. 8, Example 3)
Description: (§4) Young female Sabra mice were assigned at random to different groups (untreated controls or treated with 1 mg/kg Compound X Intra Peritoneally) of 10 mice per cage. The weights of the animals were similar at the beginning of the experiment. All cages contained wood-chip bedding and were placed in a temperature-controlled room at 22° C., on a 12-h light/dark cycle (lights on at 07.00 h). The mice had free access to water 24 h a day. The mice were fed ad-libitum, body weight was measured twice a week during the experiment and food consumption was calculated.
Compound X may also be given orally. Compound X (gavage) or saline (control) were administered to Sabra mice by oral gavage.
as §1

[8] = total food consumption in mice; format: in vivo, Sabra mice; settings: 1 mg/kg i.p.; for effect on total food consumption in the second week (comparison study): second week during administration, vs control (FIG. 9B, Example 3)
Description: as §4
Total food consumption was evaluated in the first week before treatment and at the second week during the treatment (FIGS. 2A and 2B).
as §1
Total food consumption was evaluated in the first week before treatment and at the second week during the treatment (FIGS. 9A and 9B, respectively).

[9] = neurological score by the NSS method; format: in vivo, Sabra mice; settings: 1 mg/kg i.p., day 10 (FIG. 11, Example 3)
Description: as §1
Neurological score was evaluated by the NSS method Neurological function was assessed by a 10 point scale based on reflexes and task performance 37: Exit from a circle 1 meter in diameter in less than 1 minute, seeking, walking a straight line, startle reflex, grasping reflex, righting reflex, placing reflex, corneal reflex, maintaining balance on a beam 3, 2 and 1 cm in width, climbing onto a square and a round pole. For each task failed or abnormal reflex reaction a score of 1 was assigned. Thus, a higher score indicates poorer neurological function on day 10.

[10] = locomotor activity in an open field (activity index); format: in vivo, Sabra mice; settings: 1 mg/kg i.p.; for effect on activity (mean number of crossings per minute; comparison study): open field (FIG. 10, Example 3)
Description: Activity of the mice was assessed in an open field (20×30 cm) divided into 12 squares of equal size. Two mice were observed simultaneously for 5 minutes. The activity test was performed on day 11 of the experiment. Locomotor activity was recorded by counting the number of crossings by the mice at one minute intervals. The results, depicted in FIG. 4, are presented as the mean number of crossings per minute.
Activity of the mice was assessed in an open field (20×30 cm) divided into 12 squares of equal size, as detailed in Example 2. The results, depicted in FIG. 10, are presented as the mean number of crossings per minute.

SMILES: CCCCCCCC/C=C\CCCCCCCC(=O)N[C@H](C)CO [KDS-5104, (Z)—(R)-9-octadecenamide, N-2(hydroxyethyl,1-methyl)]
EC50 [1]: 100 nM

effect on neurological score (NSS, 10 point scale; higher score = poorer function) [9]: did not change the neurological score
SMILES: CCCCCCCC/C=C\CCCCCCCC(=O)N[C@H](CO)C(C)C [Compound X, ((Z-Octadec)-9-enoic acid 1-hydroxymethyl-2-methyl-propyl)-amide]
effect on ALT levels [2]: slightly increased ALT levels
improvement in cognitive function (8 arm maze) ([3]; 1 mg/kg i.p. (Examples 1-2 conclusion)): 400%
effect on cognitive function (8 arm maze, AUC) ([3]; 1 mg/kg i.p., second week, 15 minutes after injection (FIG. 3, Example 2)): improved significantly
effect on cognitive function (8 arm maze; comparison study) [3]: improved significantly
effect on serotonin levels in the hypothalamus [4]: increased significantly
effect on 2-AG levels in the hypothalamus [5]: significant decrease
effect on NE levels in the hippocampus ([6]; p<0.05 (FIG. 7A)): significantly increased
effect on NE levels in the hypothalamus ([6]; p<0.05 (FIG. 7B)): significantly increased
duration of the decrease in weight after administration ([7]; 1 mg/kg Intra Peritoneally, female Sabra mice (Example 1)): about 15 days
effect on weight vs control (comparison study) [7]: significant decrease in weight
continuation of the weight effect after re-administration on day 43 ([7]; administered again on day 43, female Sabra mice (Example 3)): 28 days
continuation of the weight effect without further administration ([7]; after 1 mg/kg i.p. days 8-12, female Sabra mice (Example 3)): 31 days
effect on body weight, oral gavage ([7]; oral gavage vs saline control, Sabra mice (FIG. 1B)): significantly decreasing the weight
decrease in food consumption ([8]; p<0.05 (Examples 1-2 conclusion)): 7%
effect on total food consumption in the second week (comparison study) [8]: decreased food consumption significantly
effect on total food consumption in the second week ([8]; second week during treatment, P<0.05 (FIG. 2B, Example 1)): significantly decreased food consumption
effect on activity (mean number of crossings per minute) ([10]; day 11, open field, p<0.001 (FIG. 4, Example 2)): significant increase in the activity
effect on activity (mean number of crossings per minute; comparison study) [10]: significant increase in the activity
increased activity ([10]; p<0.001 (Examples 1-2 conclusion)): 36%

effect on neurological score (NSS, 10 point scale; higher score = poorer function) [9]: tendency to increase it
SMILES: Cc1c(C(=O)NN2CCCCC2)nn(-c2ccc(Cl)cc2Cl)c1-c1ccc(Cl)cc1 [Rimonabant, reference compound]
effect on ALT levels [2]: raised them significantly
effect on cognitive function (8 arm maze; comparison study) [3]: did not significantly affect cognitive function
effect on weight vs control (comparison study) [7]: no significant difference in weight loss
effect on total food consumption in the second week (comparison study) [8]: no significant differences
effect on activity (mean number of crossings per minute; comparison study) [10]: significantly decreased activity
